Assay results taken from patent publication US20250089713A1, “METHOD OF CONTROLLING OR REDUCING SENESCENCE IN PLANTS AND SEEDS” (Bedoukian Reseach, Inc., priority 2023, published 2025).
“And” between values parts separate entries of the source, which are not always exact repeats. Equal values may be shown once.

Experiments:
[1] = tested on: corn (Kandy Korn, extra sweet) plants; assay: Reduction of plant wilting senescence, foliar spray on corn seedlings; assay type: in vivo; settings: foliar spray of 1 mM (0.023% wt) in water at day 18, observed at day 25, n = 12, untreated 65%
Experimental: Seeds of corn (Kandy Korn, extra sweet) are planted in 2-inch pots. Seedlings are grown in 2-inch pots under 16-hour day/8-hour night greenhouse conditions. Plants are placed outdoors and receive 5-6 hours of natural, direct light 4-6 days per week. At day 18, seedlings receive one of two treatments: T1: untreated plants (n=11) and T2: treated, plants with foliar spray of 1 mM (0.023% wt) of methyl dihydrojasmonate (MDJ) in water. Plants are sprayed until the point of drip. (n=12). At day 25, plants are observed and senescence is recorded (percentage of wilting plants).

[2] = tested on: seeds of the corn varietal Kandy Korn; assay: Reduction of retarded seed germination rate senescence, seed soak (germination rate and radicle length); assay type: in vivo
Experimental: Non-germinated seeds of the corn varietal Kandy Korn are soaked in one of two treatment solutions: T1: untreated, only water and T2: treated, 1.5 mM (0.034% wt) of methyl dihydrojasmonate (MDJ) in water for 24 hours in 50 mL conical vessels. During the soak event, the seeds spend 12 hours in typical lighting conditions and 12 hours in darkness. Following seed treatment, the treatment solutions are drained from their vessels and a selection of seeds are taken from each vessel for planting. Six two-inch pots are planted for each treatment group, with three seeds per pot, for a total of 18 seeds planted per treatment. The unplanted seeds are allowed to remain in their original vessels in lighted conditions. In addition to determining the germination rate, the radicle lengths of the germinated seeds are measured.

CCCCCC1C(=O)CCC1CC(=O)OC (stereo not shown) [MDJ, methyl dihydrojasmonate]
% of plants with senescing plant wilting [1]: 25%
Germination Rate (percent of seeds that germinated) ([2]; corn seeds soaked 24 hours in 1.5 mM (0.034% wt) in water, n = 10, untreated (only water) 50%): 100%
Radicle length measurements of unplanted germinated seeds (individual seeds) ([2]; corn seeds soaked 24 hours in 1.5 mM in water, one value per seed, untreated 1-3 mm, listed as Methyl Dihydrojasmonate (MDJ)): 5 mm (3×) and 6 mm (2×) and 4 mm (4×) and 3 mm
average radicle length compared with untreated (only water) ([2]; corn seeds soaked in 1.5 mM, FIG. 2): significantly longer
